The subject of one test is Escherichia coli. Description: Antibacterial activity against Escherichia coli ATCC 25922 assessed as inhibition of bacterial growth incubated for 16 hrs. In kind it is functional.
A further test relates to Pseudomonas aeruginosa. Kind of test: Antibacterial activity against Pseudomonas aeruginosa PAO1 assessed as inhibition of bacterial growth incubated for 16 hrs. In kind it is functional.
Test [1] deals with Staphylococcus aureus. Kind of test: Antibacterial activity against methicillin-susceptible Staphylococcus aureus ATCC 6538 assessed as inhibition of bacterial growth incubated for 16 hrs. In kind it is functional.
Test [2] relates to Staphylococcus aureus. Description: Antibacterial activity against methicillin-resistant Staphylococcus aureus ATCC 33592 assessed as inhibition of bacterial growth incubated for 16 hrs. In kind it is functional.
Test [3] relates to Staphylococcus aureus. Description: Antibiofilm activity against methicillin-susceptible Staphylococcus aureus ATCC 6538 assessed as biofilm eradication incubated for 24 hrs by crystal violet staining based microplate reader assay. In kind it is functional.
Test [4] has as its system Staphylococcus aureus. Kind of test: Antibiofilm activity against methicillin-susceptible Staphylococcus aureus ATCC 6538 assessed as inhibition of biofilm formation incubated for 24 hrs by crystal violet staining based microplate reader assay. It is filed as functional.
The next test deals with SiHa. Kind of test: Antiproliferative activity against human SiHa cells assessed as inhibition of cell growth incubated for 72 hrs by MTT assay. In kind it is functional, cell-based.
In test [5] the test system is Staphylococcus aureus. Kind of test: Antibiofilm activity against methicillin-resistant Staphylococcus aureus ATCC 33592 assessed as inhibition of biofilm formation incubated for 24 hrs by crystal violet staining based microplate reader assay. In kind it is functional.
Another test has as its system HeLa. Kind of test: Antiproliferative activity against human HeLa cells assessed as inhibition of cell growth incubated for 72 hrs by MTT assay. In kind it is functional, cell-based.
The test system of a further test is COLO 205. Description: Antiproliferative activity against human COLO 205 cells assessed as inhibition of cell growth incubated for 72 hrs by MTT assay. In kind it is functional, cell-based. The note with it: COLO 205, 72 h.
Another test has as its system COLO 320. Description: Antiproliferative activity against human COLO 320 cells assessed as inhibition of cell growth incubated for 72 hrs by MTT assay. It is filed as functional, cell-based. The note with it: COLO 320, 72 h.
The subject of test [6] is Staphylococcus aureus. Kind of test: Antibiofilm activity against methicillin-resistant Staphylococcus aureus ATCC 33592 assessed as biofilm eradication incubated for 24 hrs by crystal violet staining based microplate reader assay. It is filed as functional.

Values after ≈ are worked out from the molar mass of the structure shown.

This is an account of results in ChEMBL document CHEMBL5584310, “Phenanthrenes from Juncus articulatus with Antibacterial and Biofilm Formation Inhibitory Activity” (J Nat Prod, 2024).

`C=Cc1c(C)c(O)cc2c1CCc1c-2ccc(O)c1C`: the minimal inhibitory concentration (MIC) in the test with Escherichia coli was above 481 µM; in the test with Pseudomonas aeruginosa it was above 481 µM; in the test with Staphylococcus aureus [1] it was 481 µM (≈ 128 µg/mL); in the test with Staphylococcus aureus [2], 481 µM (≈ 128 µg/mL).

For the molecule `C=Cc1c(C)c(O)cc2c1ccc1c(C)c(O)ccc12`, the MIC is above 484 µM in the test on Escherichia coli, above 484 µM in the test with Pseudomonas aeruginosa, 15.1 µM (≈ 3.99 µg/mL) with Staphylococcus aureus [1] and 15.1 µM (≈ 3.99 µg/mL) in the test on Staphylococcus aureus [2]. In the test with Staphylococcus aureus [3], the MBEC was above 484 µM. Besides, the MBIC with Staphylococcus aureus [4] stood at 15.1 µM.

Consider `CC(=O)c1c(C)c(O)cc2c1ccc1c(C)c(O)ccc12`, for which the minimum inhibitory concentration (MIC) was above 457 µM in the test on Escherichia coli, above 457 µM with Pseudomonas aeruginosa, 457 µM (≈ 128 µg/mL) in the test with Staphylococcus aureus [1] and 457 µM (≈ 128 µg/mL) in the test with Staphylococcus aureus [2].

On to `C#Cc1c(C)c(O)cc2c1CCc1c-2ccc(O)c1C`, for which the minimum inhibitory concentration (MIC) in the test with Escherichia coli is above 485 µM; in the test on Pseudomonas aeruginosa, above 485 µM; in the test on Staphylococcus aureus [1], 121 µM (≈ 32.1 µg/mL); in the test with Staphylococcus aureus [2] it was 121 µM (≈ 32.1 µg/mL). In addition, in the test with SiHa, the 50% inhibitory concentration (IC50) was determined as 25.3 µM.

In the case of `C=Cc1c(C)c(O)c(-c2cc3c(c(C)c2O)CCc2c(C=O)c(C)cc(O)c2-3)c2c1ccc1c(C)c(O)ccc12`, the minimum inhibitory concentration (MIC) with Escherichia coli was above 121 µM; in the test on Pseudomonas aeruginosa, above 121 µM; in the test on Staphylococcus aureus [1], 60.5 µM (≈ 32.1 µg/mL); in the test with Staphylococcus aureus [2], 121 µM (≈ 64.2 µg/mL).

`C=Cc1c(C)c(O)cc2c1ccc1c(C)c(Oc3c(O)c(C)c(C=C)c4ccc5c(C)c(O)ccc5c34)ccc12`: the MIC with Escherichia coli is above 243 µM; in the test with Pseudomonas aeruginosa it was above 243 µM; in the test on Staphylococcus aureus [1], 122 µM (≈ 64 µg/mL); with Staphylococcus aureus [2], 122 µM (≈ 64 µg/mL).

On to `C=Cc1c(COC)c(O)cc2c1CCc1c-2ccc(O)c1C`, for which the minimal inhibitory concentration (MIC) in the test with Escherichia coli is above 413 µM; with Pseudomonas aeruginosa, above 413 µM; in the test with Staphylococcus aureus [1] it was 413 µM (≈ 122 µg/mL); in the test on Staphylococcus aureus [2], 413 µM (≈ 122 µg/mL).

`C=Cc1c(C)c(O)cc2c1CCc1c-2cc(-c2cc3c(c(C)c2O)CCc2c-3cc(O)c(C)c2C=C)c(O)c1C`: the MIC with Escherichia coli was above 121 µM; in the test with Pseudomonas aeruginosa, above 121 µM; in the test on Staphylococcus aureus [1], 60.5 µM (≈ 32.1 µg/mL); with Staphylococcus aureus [2] it was 60.5 µM (≈ 32.1 µg/mL). Besides, the results for the MBIC in the test on Staphylococcus aureus [4] and in the test with Staphylococcus aureus [5] were 121 µM and 242 µM, respectively.

`C#Cc1c(CO)c(O)cc2c1CCc1c-2ccc(O)c1C`: the MIC with Escherichia coli is above 457 µM; with Pseudomonas aeruginosa, above 457 µM; with Staphylococcus aureus [1], 57.1 µM (≈ 16 µg/mL); with Staphylococcus aureus [2], 57.1 µM (≈ 16 µg/mL). Further, the MBIC in the test with Staphylococcus aureus [4] came out at 114.3 µM. The half-maximal inhibitory concentration (IC50) in the test on HeLa, with COLO 205 and in the test with COLO 320 was 12.3 µM in each case.

For the molecule `C=Cc1c(C)cc(O)c2c1CCc1c-2ccc(O)c1C`, the MIC in the test with Escherichia coli was above 480 µM; with Pseudomonas aeruginosa, above 480 µM; in the test on Staphylococcus aureus [1], 30 µM (≈ 7.99 µg/mL); in the test with Staphylococcus aureus [2] it was 30 µM (≈ 7.99 µg/mL). The MBIC in the test on Staphylococcus aureus [4] and with Staphylococcus aureus [5] was 60 µM in each case. The IC50 in the test with HeLa, in the test with COLO 205 and with COLO 320 was 12.3 µM each time.

As for `C=Cc1c(COC)c(O)cc2c1ccc1c(C)c(O)ccc12`, the minimum inhibitory concentration (MIC) with Escherichia coli was above 435 µM; with Pseudomonas aeruginosa, above 435 µM; in the test with Staphylococcus aureus [1], 218 µM (≈ 64 µg/mL); in the test with Staphylococcus aureus [2], 218 µM (≈ 64 µg/mL).

Turning to `C=CC1=C(C)C(=O)C=C2c3ccc(O)c(C)c3CC[C@@]21O`, the minimum inhibitory concentration (MIC) is above 454 µM in the test on Escherichia coli, above 454 µM with Pseudomonas aeruginosa, 56.8 µM (≈ 16 µg/mL) in the test with Staphylococcus aureus [1] and 56.8 µM (≈ 16 µg/mL) with Staphylococcus aureus [2]. Also, in the test on Staphylococcus aureus [4], the MBIC turned out to be 113.5 µM.

For `C#Cc1c(C)c(O)cc2c1ccc1c(C)c(O)ccc12`, the MIC in the test with Escherichia coli was above 488 µM; in the test on Pseudomonas aeruginosa, above 488 µM; with Staphylococcus aureus [1], 15.3 µM (≈ 4.01 µg/mL); in the test with Staphylococcus aureus [2], 15.3 µM (≈ 4.01 µg/mL). Moreover, the MBEC in the test with Staphylococcus aureus [3] is above 488 µM. The MBIC with Staphylococcus aureus [4] was 15.3 µM.

`C=Cc1c(CO)c(O)cc2c1ccc1c(C)c(O)ccc12`: the MIC was above 229 µM with Escherichia coli, above 229 µM in the test with Pseudomonas aeruginosa, 114 µM (≈ 32 µg/mL) in the test on Staphylococcus aureus [1] and 114 µM (≈ 32 µg/mL) in the test on Staphylococcus aureus [2]. Also, the MBIC in the test with Staphylococcus aureus [4] turned out to be 114.3 µM.

In the case of `C=Cc1c(C)cc(O)c2c1CCc1c-2cc(-c2c(O)c(C)c(C=C)c3ccc4c(C)c(O)ccc4c23)c(O)c1C`, the minimum inhibitory concentration (MIC) in the test with Escherichia coli was above 242 µM; in the test with Pseudomonas aeruginosa, above 242 µM; with Staphylococcus aureus [1], 60.5 µM (≈ 32 µg/mL); in the test with Staphylococcus aureus [2], 60.5 µM (≈ 32 µg/mL). Also, the MBIC in the test with Staphylococcus aureus [4] and in the test on Staphylococcus aureus [5] was 60.5 µM each time. For the same molecule, the 50% inhibitory concentration (IC50) with HeLa, in the test on COLO 205 and with COLO 320 was 12.3 µM throughout.

Regarding `C=Cc1c(C)c(O)cc2c3c(ccc12)C(C)(O)C(=O)C=C3` (stereo not drawn), the MIC in the test with Escherichia coli was above 458 µM; with Pseudomonas aeruginosa, above 458 µM; in the test with Staphylococcus aureus [1], 229 µM (≈ 64.2 µg/mL); in the test on Staphylococcus aureus [2], 229 µM (≈ 64.2 µg/mL).

`C#Cc1c(CO)c(O)cc2c1ccc1c(C)c(O)ccc12`: the MIC was above 230 µM in the test on Escherichia coli, above 230 µM with Pseudomonas aeruginosa, 57.5 µM (≈ 16 µg/mL) in the test with Staphylococcus aureus [1] and 115 µM (≈ 32 µg/mL) in the test with Staphylococcus aureus [2]. Further, the MBIC in the test with Staphylococcus aureus [4] was 115 µM; with Staphylococcus aureus [5] it was 114.3 µM.

In the case of `C=Cc1c(CO)cc(O)c2c1CCc1c-2ccc(O)c1C`, the MIC is above 454 µM with Escherichia coli, above 454 µM in the test on Pseudomonas aeruginosa, 114 µM (≈ 32 µg/mL) in the test with Staphylococcus aureus [1] and 114 µM (≈ 32 µg/mL) in the test on Staphylococcus aureus [2]. The MBIC with Staphylococcus aureus [4] and in the test on Staphylococcus aureus [5] was 227 µM throughout. The half-maximal inhibitory concentration (IC50) with HeLa, in the test with COLO 205 and with COLO 320 was 12.3 µM in each case.

In the case of `C=Cc1c(C)c(Oc2c(O)c(C)c(C=C)c3ccc4c(C)c(O)ccc4c23)cc2c1ccc1c(C)c(O)ccc12`, the MIC is above 121 µM in the test with Escherichia coli, above 121 µM in the test with Pseudomonas aeruginosa, 60.5 µM (≈ 31.9 µg/mL) in the test on Staphylococcus aureus [1] and 60.5 µM (≈ 31.9 µg/mL) in the test on Staphylococcus aureus [2]. In addition, the MBIC with Staphylococcus aureus [4] was 121 µM.

With `O=C(O)c1cn(C2CC2)c2cc(N3CCNCC3)c(F)cc2c1=O` [CIPROFLOXACIN], the minimum inhibitory concentration (MIC) in the test on Pseudomonas aeruginosa, with Staphylococcus aureus [1] and with Staphylococcus aureus [2] was 0.37 µM (≈ 0.123 µg/mL) in each case. In addition, the MBEC in the test on Staphylococcus aureus [3] was above 386.7 µM. Moreover, the MBIC in the test with Staphylococcus aureus [4] is 0.75 µM.

Turning to `CN[C@H](CC(C)C)C(=O)N[C@H]1C(=O)N[C@@H](CC(N)=O)C(=O)N[C@H]2C(=O)N[C@H]3C(=O)N[C@H](C(=O)N[C@H](C(=O)O)c4cc(O)cc(O)c4-c4cc3ccc4O)[C@H](O)c3ccc(c(Cl)c3)Oc3cc2cc(c3O[C@@H]2O[C@H](CO)[C@@H](O)[C@H](O)[C@H]2O[C@H]2C[C@](C)(N)[C@H](O)[C@H](C)O2)Oc2ccc(cc2Cl)[C@H]1O` [VANCOMYCIN], the values for the MIC in the test with Escherichia coli, with Pseudomonas aeruginosa and with Staphylococcus aureus [2] were 177 µM (≈ 256 µg/mL), 1770 µM (≈ 2560 µg/mL) and 1.38 µM (≈ 2 µg/mL), respectively. Besides, the MBEC with Staphylococcus aureus [3] and in the test on Staphylococcus aureus [6] was above 88.3 µM each time. The MBIC in the test with Staphylococcus aureus [5] is 1.38 µM.
